Reference: patent publication US20250382239A1, “COMPOSITIONS FOR ENHANCING NITROGEN FERTILIZERS BY INCORPORATING ANTI-OXIDANT MOIETIES AND METHODS FOR USE THEREOF” (Verdesian Life Sciences U.S., LLC, priority 2022, published 2025)

Test system: urease enzyme
Assay: Draeger tube NH3 volatilization screening of urease inhibitor compositions applied on urea prills on soil
Parameters: NH3 Draeger tube reading: unit not given here
Conditions: for urease enzyme inhibitory properties: exposed to soil alone or in combination with urea-containing fertilizer
Experimental: tBHQ (main active ingredient (AI)), solvents, additives (co-Actives) were obtained from commercial vendors. Draeger tube protocol was developed and used soils from NCSU Ag research facility at Oxford, North Carolina. Samples were prepared by co-dissolution in the appropriate solvent by rolling on a sample roller for 2-4 hours at ambient temperature and allowed to stand over weekend to make sure there was no haziness and/or precipitate that developed. Typical sample size was 4-4.5 g in a 12 mL cylindrical glass vial.
The following candidates were tBHQ+[x co-Active+y Solvent] where x and y varied.

Question: For `Oc1ccc(O)cc1` [hydroquinone, reference compound], which “urease enzyme inhibitory properties” value is on record?
Answer: significantly less efficacious urease enzyme inhibition properties

Question: How did the “NH3 Draeger tube reading” value (Round 10 (Table 11), 18 hrs) turn out when `NC(N)=O` [Urea] was run?
Answer: 0

Question: What about the “NH3 Draeger tube reading” value (Round 10 (Table 11), 24 hrs) of the same compound?
Answer: 0

Question: What about the “NH3 Draeger tube reading” value (Round 10 (Table 11), 42 hrs) of the same compound?
Answer: 125

Question: What about the “NH3 Draeger tube reading” value (Round 10 (Table 11), 48 hrs) of the same compound?
Answer: 150

Question: And the “NH3 Draeger tube reading” value (Round 10 (Table 11), 66 hrs)?
Answer: 150

Question: What about the “NH3 Draeger tube reading” value (Round 10 (Table 11), 90 hrs) of the same compound?
Answer: 150

Question: And the “NH3 Draeger tube reading” value (Round 10 (Table 11), 120 hrs)?
Answer: 150

Question: What about the “NH3 Draeger tube reading” value (Round 10 (Table 11), 187 hrs) of the same compound?
Answer: 150

Question: And the “NH3 Draeger tube reading” value (Round 10 (Table 11), 210 hrs)?
Answer: 150

Question: And the “NH3 Draeger tube reading” value (Round 10 (Table 11), 266 hrs)?
Answer: 150

Question: And the “NH3 Draeger tube reading” value (Round 10 (Table 11), 288 hrs)?
Answer: 150

Question: What about the “NH3 Draeger tube reading” value (Round 10 (Table 11), 330 hrs) of the same compound?
Answer: 150

Question: And the “NH3 Draeger tube reading” value (Round 10 (Table 11), 354 hrs)?
Answer: 150

Question: And the “NH3 Draeger tube reading” value (Round 10 (Table 11), 381 hrs)?
Answer: 150

Question: And the “NH3 Draeger tube reading” value (Round 10 (Table 11), […])?
Answer: 150

Question: And the “NH3 Draeger tube reading” value (Round 11 (Table 12), 16 hrs)?
Answer: 0

Question: And the “NH3 Draeger tube reading” value (Round 11 (Table 12), 24 hrs)?
Answer: 0

Question: What about the “NH3 Draeger tube reading” value (Round 11 (Table 12), 40 hrs) of the same compound?
Answer: 12

Question: And the “NH3 Draeger tube reading” value (Round 11 (Table 12), 48 hrs)?
Answer: 36

Question: And the “NH3 Draeger tube reading” value (Round 11 (Table 12), 64 hrs)?
Answer: 125.4

Question: What about the “NH3 Draeger tube reading” value (Round 11 (Table 12), 88 hrs) of the same compound?
Answer: 150

Question: And the “NH3 Draeger tube reading” value (Round 11 (Table 12), 160 hrs)?
Answer: 150

Question: And the “NH3 Draeger tube reading” value (Round 11 (Table 12), 184 hrs)?
Answer: 150

Question: And the “NH3 Draeger tube reading” value (Round 11 (Table 12), 232 hrs)?
Answer: 150

Question: What about the “NH3 Draeger tube reading” value (Round 11 (Table 12), 256 hrs) of the same compound?
Answer: 150

Question: What about the “NH3 Draeger tube reading” value (Round 11 (Table 12), […]) of the same compound?
Answer: 150

Question: What about the “NH3 Draeger tube reading” value (Round 12 (Table 13), 15 hrs) of the same compound?
Answer: 0

Question: What about the “NH3 Draeger tube reading” value (Round 12 (Table 13), 23 hrs) of the same compound?
Answer: 0

Question: And the “NH3 Draeger tube reading” value (Round 12 (Table 13), 39 hrs)?
Answer: 31

Question: And the “NH3 Draeger tube reading” value (Round 12 (Table 13), 48 hrs)?
Answer: 118

Question: And the “NH3 Draeger tube reading” value (Round 12 (Table 13), 66 hrs)?
Answer: 150

Question: And the “NH3 Draeger tube reading” value (Round 12 (Table 13), 90 hrs)?
Answer: 150

Question: What about the “NH3 Draeger tube reading” value (Round 12 (Table 13), 111 hrs) of the same compound?
Answer: 150

Question: And the “NH3 Draeger tube reading” value (Round 12 (Table 13), 159 hrs)?
Answer: 150

Question: What about the “NH3 Draeger tube reading” value (Round 12 (Table 13), 192 hrs) of the same compound?
Answer: 150

Question: And the “NH3 Draeger tube reading” value (Round 12 (Table 13), 216 hrs)?
Answer: 150

Question: And the “NH3 Draeger tube reading” value (Round 12 (Table 13), 239 hrs)?
Answer: 150

Question: And the “NH3 Draeger tube reading” value (Round 12 (Table 13), 260 hrs)?
Answer: 150

Question: And the “NH3 Draeger tube reading” value (Round 12 (Table 13), 283 hrs)?
Answer: 150

Question: And the “NH3 Draeger tube reading” value (Round 12 (Table 13), 304 hrs)?
Answer: 150

Question: And the “NH3 Draeger tube reading” value (Round 12 (Table 13), 327 hrs)?
Answer: 150

Question: And the “NH3 Draeger tube reading” value (Round 12 (Table 13), 357 hrs)?
Answer: 150

Question: And the “NH3 Draeger tube reading” value (Round 12 (Table 13), 375 hrs)?
Answer: 150

Question: And the “NH3 Draeger tube reading” value (Round 12 (Table 13), […])?
Answer: 150

Question: For `CC(C)(C)c1cc(O)ccc1O` [tert-butylhydroquinone], which “urease enzyme inhibitory properties” value is on record?
Answer: strong urease enzyme inhibitory properties
